Experimental data from patent publication US6110918A, “Mesylate trihydrate salt of 5-(2-(4-(1,2-benzisothiazol-3-yl)-1-piperazinyl)ethyl)-6-chloro-1,3-dihy dro-2(1H)-indol-2-one (=ziprasidone), its preparation and its use as dopamine D2 antagonist” (Pfizer Inc, priority 1999, dated 2000).
Where a name gives a salt, the structure may show the parent alone. Read-outs that look alike come from different tables or passages of the source.

Legend:
[1] = Hygroscopicity / hygroscopic stability; assay type: physicochemical
physchem = settings: water
Procedure: (§1) The relative thermodynamic stability of the three ziprasidone mesylate hydrated crystal forms was determined in a series of bridging experiments where mixtures of the crystal forms were allowed to equilibrate. For the bridging experiments, 200 mg samples were allowed to equilibrate in water (4 mL) at ambient temperature (22-25° C.). Two samples each of 90/10 (w/w) and 10/90 (w/w) mixtures of the two different identified polymorphs of ziprasidone mesylate (prism vs. dihydrate (lath), prism vs. dihydrate (needle), dihydrate (needle) vs. dihydrate (lath)) were evaluated. After equilibration (12-13 days), the solids were evaluated for polymorph changes and the supernatants were assayed by HPLC to determine solubility.

[2] = Relative thermodynamic stability of the crystal forms in water (bridging experiments); assay type: physicochemical; settings: for thermodynamic stability in an aqueous medium (words): ambient conditions/temperature, among the four ziprasidone mesylate forms, methanesulfonate trihydrate
[3] = for SOLUBILITY IN WATER: Aqueous solubility of ziprasidone mesylate polymorphs, ambient temperature (22-25° C.), equilibration 12-13 days
Procedure: as §1

[4] = as stated by U.S. Pat. No. 5,312,925; cited from earlier work

In the case of `CS(=O)(=O)O.O.O.O.O=C1Cc2cc(CCN3CCN(c4nsc5ccccc45)CC3)c(Cl)cc2N1` [ziprasidone mesylate trihydrate, 5-[2-[4-(1,2-benzisothiazol-3-yl)-1-piperazinyl]ethyl]-6-chloro-1,3-dihydro-2H-indol-2-one methanesulfonate trihydrate], the “hygroscopic stability” value [1] is reported as “possesses hygroscopic stability”, the solubility (physchem) is reported as 730 µg/mL and the “thermodynamic stability in an aqueous medium (words)” value ([2]; listed as mesylate trihydrate) is reported as “most thermodynamically stable”. The “thermodynamic stability in an aqueous medium (words)” value [2] was “most thermodynamically stable form of the four ziprasidone mesylate forms”, the “thermodynamic stability relative to the dihydrate forms” value ([2]; bridging experiments, 200 mg in water (4 mL), 22-25° C., 12-13 days) was “thermodynamically favored over the dihydrate forms” and the “aqueous solubility relative to ziprasidone hydrochloride monohydrate” value ([3]; compared with hydrochloride monohydrate) was “significantly greater aqueous solubility than the hydrochloride monohydrate”.

For `O=C1Cc2cc(CCN3CCN(c4nsc5ccccc45)CC3)c(Cl)cc2N1` [5-[2-[4-(1-benzisothiazol-3-yl)-1-piperazinyl]ethyl]-6-chloro-1,3-dihydro-2H-indol-2-one methanesulfonate dihydrate (lath crystals)], the “SOLUBILITY IN WATER” value ([3]; listed as dihydrate (lath)) was 1.11 mg/mL.

For `O=C1Cc2cc(CCN3CCN(c4nsc5ccccc45)CC3)c(Cl)cc2N1` [ziprasidone hydrochloride monohydrate, reference compound], the “hygroscopic stability” value [4] is listed as “substantially hygroscopically stable”, the “aqueous solubility” value ([3]; background statement) is listed as “low aqueous solubility” and the solubility in water ([3]; in water at ambient temperature, comparator salt) is listed as 80 µg/mL.

In the case of `O=C1Cc2cc(CCN3CCN(c4nsc5ccccc45)CC3)c(Cl)cc2N1` [5-[2-[4-(1-benzisothiazol-3-yl)-1-piperazinyl]ethyl]-6-chloro-1,3-dihydro-2H-indol-2-one methanesulfonate dihydrate (needle crystals)], the “SOLUBILITY IN WATER” value ([3]; listed as dihydrate (needle)) is reported as 1.10 mg/mL.

With `O=C1Cc2cc(CCN3CCN(c4nsc5ccccc45)CC3)c(Cl)cc2N1` [5-[2-[4-(1,2-benzisothiazol-3-yl)-1-piperazinyl]ethyl]-6-chloro-1,3-dihydro-2H-indol-2-one methanesulfonate anhydrous] the “hygroscopicity when exposed to air” value ([1]; exposed to air (humidity)) was “hygroscopic when exposed to air (humidity)” and the “SOLUBILITY IN WATER” value ([3]; listed as anhydrous) was 1.27 mg/mL.
